The results in this text go back to ChEMBL document CHEMBL5291721, “A preclinical secondary pharmacology resource illuminates target-adverse drug reaction associations of marketed drugs” (Nat Commun, 2023).

A word on the AC50: it is the concentration giving half of the maximal activity seen. A higher AC50 goes with activity only at high concentration.

The target of assay [1] is T1, Retinoic acid receptor beta (Homo sapiens, UniProt P10826).
T1 sequence (P10826 whole entry): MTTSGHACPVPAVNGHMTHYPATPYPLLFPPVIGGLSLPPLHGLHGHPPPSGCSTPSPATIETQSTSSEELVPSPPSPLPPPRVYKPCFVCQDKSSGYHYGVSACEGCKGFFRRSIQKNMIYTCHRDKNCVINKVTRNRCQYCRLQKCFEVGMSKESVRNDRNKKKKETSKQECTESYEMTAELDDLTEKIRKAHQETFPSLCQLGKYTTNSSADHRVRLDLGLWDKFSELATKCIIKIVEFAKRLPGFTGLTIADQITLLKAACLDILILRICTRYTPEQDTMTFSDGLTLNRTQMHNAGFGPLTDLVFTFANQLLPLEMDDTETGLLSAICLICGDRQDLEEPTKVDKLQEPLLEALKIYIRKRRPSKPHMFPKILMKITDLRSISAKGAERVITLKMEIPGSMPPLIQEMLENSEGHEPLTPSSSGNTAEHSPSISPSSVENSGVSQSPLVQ
Type of assay: functional, cell-based.

Assay [2] deals with T2, Retinoic acid receptor alpha (Homo sapiens, UniProt P10276).
T2 sequence (P10276 whole entry): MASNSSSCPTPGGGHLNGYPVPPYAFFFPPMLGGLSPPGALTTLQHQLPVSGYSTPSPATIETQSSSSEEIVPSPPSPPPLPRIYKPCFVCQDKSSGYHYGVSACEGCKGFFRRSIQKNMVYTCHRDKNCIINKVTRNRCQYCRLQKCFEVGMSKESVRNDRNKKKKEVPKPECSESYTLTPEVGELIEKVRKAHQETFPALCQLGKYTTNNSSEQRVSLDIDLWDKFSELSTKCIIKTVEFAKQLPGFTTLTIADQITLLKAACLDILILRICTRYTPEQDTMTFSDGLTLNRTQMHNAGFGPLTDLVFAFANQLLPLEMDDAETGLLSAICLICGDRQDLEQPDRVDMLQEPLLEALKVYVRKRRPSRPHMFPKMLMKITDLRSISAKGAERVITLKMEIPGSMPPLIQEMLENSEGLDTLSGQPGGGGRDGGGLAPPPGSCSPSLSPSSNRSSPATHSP
The assay is classed as functional, cell-based.

Assay [3] concerns the target T3, Oxysterols receptor LXR-alpha (Homo sapiens, UniProt Q13133).
T3 sequence (Q13133 whole entry): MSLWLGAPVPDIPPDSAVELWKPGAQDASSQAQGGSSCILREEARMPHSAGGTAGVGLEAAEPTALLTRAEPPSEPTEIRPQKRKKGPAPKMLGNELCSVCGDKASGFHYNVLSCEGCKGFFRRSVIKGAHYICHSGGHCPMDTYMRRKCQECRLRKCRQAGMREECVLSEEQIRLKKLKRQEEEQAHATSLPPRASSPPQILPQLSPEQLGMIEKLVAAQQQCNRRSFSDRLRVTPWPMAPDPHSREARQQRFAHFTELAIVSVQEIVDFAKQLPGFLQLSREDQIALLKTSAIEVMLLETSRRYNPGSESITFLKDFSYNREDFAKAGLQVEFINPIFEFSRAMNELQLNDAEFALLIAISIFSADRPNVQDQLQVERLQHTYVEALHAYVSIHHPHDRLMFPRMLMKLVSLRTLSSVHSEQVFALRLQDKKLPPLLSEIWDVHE
The assay is classed as functional.

The target of assay [4] is T4, Muscarinic acetylcholine receptor M1 (Homo sapiens, UniProt P11229).
T4 sequence (P11229 whole entry): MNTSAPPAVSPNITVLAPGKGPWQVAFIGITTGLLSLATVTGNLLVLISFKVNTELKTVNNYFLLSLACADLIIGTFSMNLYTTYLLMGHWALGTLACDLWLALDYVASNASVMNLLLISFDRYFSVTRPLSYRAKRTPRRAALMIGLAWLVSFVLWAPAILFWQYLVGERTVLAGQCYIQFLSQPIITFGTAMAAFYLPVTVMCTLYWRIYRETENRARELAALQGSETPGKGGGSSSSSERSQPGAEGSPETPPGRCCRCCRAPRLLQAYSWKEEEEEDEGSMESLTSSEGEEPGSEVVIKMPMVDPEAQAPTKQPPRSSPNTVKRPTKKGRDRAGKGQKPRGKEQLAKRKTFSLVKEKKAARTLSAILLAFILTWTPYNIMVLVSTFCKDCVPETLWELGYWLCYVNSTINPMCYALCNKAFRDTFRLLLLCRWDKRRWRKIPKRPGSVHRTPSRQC

In assay [5] the target is T5, Prostaglandin G/H synthase 1 (Rattus norvegicus, UniProt Q63921).
T5 sequence (Q63921 whole entry): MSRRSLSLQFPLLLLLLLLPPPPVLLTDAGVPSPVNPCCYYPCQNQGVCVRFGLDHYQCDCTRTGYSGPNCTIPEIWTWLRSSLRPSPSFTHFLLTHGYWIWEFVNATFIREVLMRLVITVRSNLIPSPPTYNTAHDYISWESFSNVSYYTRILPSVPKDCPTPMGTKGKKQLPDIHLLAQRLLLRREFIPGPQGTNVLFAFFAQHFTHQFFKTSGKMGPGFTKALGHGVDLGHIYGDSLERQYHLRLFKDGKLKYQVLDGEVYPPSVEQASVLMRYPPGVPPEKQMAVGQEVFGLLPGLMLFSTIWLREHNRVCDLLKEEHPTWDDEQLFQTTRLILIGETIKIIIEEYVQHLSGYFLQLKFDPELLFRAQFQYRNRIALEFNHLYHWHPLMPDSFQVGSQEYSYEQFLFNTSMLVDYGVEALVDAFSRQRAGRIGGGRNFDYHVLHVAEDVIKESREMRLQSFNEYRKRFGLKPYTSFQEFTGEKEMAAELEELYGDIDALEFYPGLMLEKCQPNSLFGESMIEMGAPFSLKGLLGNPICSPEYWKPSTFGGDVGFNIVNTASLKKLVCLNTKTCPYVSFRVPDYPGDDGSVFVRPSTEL
Type of assay: functional.

The target of assay [6] is Type-2 angiotensin II receptor (Homo sapiens, UniProt P50052). The assay is classed as functional.
Type-2 angiotensin II receptor, sequence (P50052 whole entry): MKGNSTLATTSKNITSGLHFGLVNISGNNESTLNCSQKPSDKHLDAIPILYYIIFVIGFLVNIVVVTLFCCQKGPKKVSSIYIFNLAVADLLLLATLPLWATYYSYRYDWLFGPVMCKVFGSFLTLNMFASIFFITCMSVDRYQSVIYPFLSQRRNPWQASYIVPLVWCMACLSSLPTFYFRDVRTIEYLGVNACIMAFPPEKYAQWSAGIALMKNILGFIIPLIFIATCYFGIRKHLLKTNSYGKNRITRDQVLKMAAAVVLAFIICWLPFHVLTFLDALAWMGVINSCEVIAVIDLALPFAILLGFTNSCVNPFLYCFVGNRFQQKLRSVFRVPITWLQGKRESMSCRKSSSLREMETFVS
Assay [7] has as its target T6, Type-1 angiotensin II receptor (Homo sapiens, UniProt P30556).
T6 sequence (P30556 whole entry): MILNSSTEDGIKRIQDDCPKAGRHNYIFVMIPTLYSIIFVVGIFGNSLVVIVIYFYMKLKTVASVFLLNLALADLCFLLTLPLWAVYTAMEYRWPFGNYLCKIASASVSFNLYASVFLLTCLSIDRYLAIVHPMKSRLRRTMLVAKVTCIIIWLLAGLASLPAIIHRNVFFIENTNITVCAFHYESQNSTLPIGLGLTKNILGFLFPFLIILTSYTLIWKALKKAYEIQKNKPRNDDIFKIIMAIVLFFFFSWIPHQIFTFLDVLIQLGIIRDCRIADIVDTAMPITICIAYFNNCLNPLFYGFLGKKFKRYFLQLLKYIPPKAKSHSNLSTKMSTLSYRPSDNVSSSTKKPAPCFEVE
Also: assay procedure not described here.

For the compound `COc1ccc2c(c1)C(=O)N(CCc1ccc(S(=O)(=O)NC(=O)NC3CCCCC3)cc1)C(=O)C2(C)C` [GLIQUIDONE], the figures for the AC50 in assay [1], in assay [2] and in assay [3] were 24 µM, 22 µM and > 30 µM, respectively.

In the case of `Cc1cc2c(cc1CC(=O)c1sccc1S(=O)(=O)Nc1onc(C)c1Cl)OCO2` [SITAXENTAN], the concentration at half-maximal activity (AC50) in assay [4] is > 30 µM.

On to `COC(=O)[C@@H]1CC2=CC(=O)CC[C@]2(C)[C@@]23O[C@@H]2C[C@@]2(C)[C@@H](CC[C@@]24CCC(=O)O4)[C@H]13` [EPLERENONE], for which the half-maximal activity concentration (AC50) in assay [5] is > 30 µM.

Consider `CC(C)NCC(O)COc1ccc(COCCOC(C)C)cc1` (configuration not stated) [BISOPROLOL], for which the AC50 in assay [6] is > 100 µM.

Consider `CN1CCCC(n2nc(Cc3ccc(Cl)cc3)c3ccccc3c2=O)CC1` (configuration not stated) [AZELASTINE], for which the AC50 in assay [7] is > 100 µM.
